Values joined by “and” are separate entries in the source; they are usually repeats but may differ in a detail not shown here. Identical values can stand only once.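 Following 48 hours of exposure in 96-well plates, responses at five concentrations were used to interpolate endpoints linearly. At the GI50, growth is halved. TGI denotes the concentration required for complete inhibition of growth.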

Data on 27 molecules can be found in PubChem BioAssay (NCI).

Test systems include CCRF-CEM leukemia; KM12 colon; COLO 205 colon; CAKI-1 renal; NCI-H23 lung; RXF 393 renal; SF-268 CNS.
Common to all, as to experiment: growth of human tumour cells (NCI), 48 h

As for `Cc1cccc2c1C(=O)OC2(c1cccc2ccccc12)c1cccc2ccccc12`, the TGI is greater than 100 µM with CCRF-CEM leukemia; greater than 100 µM in the test on KM12 colon; greater than 100 µM in the test with COLO 205 colon; greater than 100 µM in the test with CAKI-1 renal; greater than 100 µM in the test with NCI-H23 lung; 94.3 µM in the test on RXF 393 renal. For the same molecule, in the test with SF-268 CNS, the TGI was greater than 100 µM.
As to `Nc1ccc(C(=O)N/C(=C\c2ccc3c(c2)OCO3)c2nc3ccc4c(c3[nH]2)C(=O)c2ccccc2C4=O)cc1`, the TGI in the test with CCRF-CEM leukemia is 92.6 µM; with KM12 colon it was greater than 100 µM; in the test on COLO 205 colon it was greater than 100 µM; in the test with CAKI-1 renal, greater than 100 µM; in the test with NCI-H23 lung, 56.5 µM; in the test with RXF 393 renal it was 42.4 µM. This molecule also came in with a TGI in the test with SF-268 CNS greater than 100 µM.
For `Cc1ccc(S(=O)(=O)N/N=C/CN2C(=O)c3ccccc3C2=O)cc1`, the TGI in the test on CCRF-CEM leukemia, with COLO 205 colon, in the test with CAKI-1 renal and with NCI-H23 lung was greater than 100 µM in each case.
`CCc1cc2c(c3[nH]ccc13)[C@@H](C)C[C@H]2C`: the TGI was 43.4 µM in the test on CCRF-CEM leukemia; 36.5 µM in the test on KM12 colon; 38.1 µM with COLO 205 colon; 34.7 µM in the test on CAKI-1 renal; 37.8 µM with NCI-H23 lung; 28.7 µM in the test on RXF 393 renal.
As for `CCOc1c(Cc2ccccc2)c(=O)n2c3ccccc3n3c(=O)n(C)c(=O)c1c23`, the TGI with KM12 colon, in the test on COLO 205 colon, in the test on CAKI-1 renal, in the test with NCI-H23 lung, in the test with RXF 393 renal and in the test with SF-268 CNS was greater than 100 µM each time.
For `CCCN(CCC)c1c([N+](=O)[O-])cc(C(N)=O)cc1[N+](=O)[O-]`, the TGI in the test on CCRF-CEM leukemia, in the test with KM12 colon, in the test with COLO 205 colon, in the test with CAKI-1 renal, with NCI-H23 lung and in the test with SF-268 CNS was greater than 100 µM in each case.
On to `O=C1NC(=Nc2ccccc2Cl)SC1C(=O)Nc1ccc([N+](=O)[O-])cc1[N+](=O)[O-]` (configuration not stated), for which the TGI in the test on CCRF-CEM leukemia, in the test on KM12 colon, in the test with COLO 205 colon, in the test with CAKI-1 renal, with NCI-H23 lung and with RXF 393 renal was greater than 100 µM each time. Besides, the TGI with SF-268 CNS was greater than 100 µM.
As to `COc1cccc(C2N3CCCCC3[C@@H]3c4[nH]c5ccccc5c4CCN23)c1OC` (some centres not stated), the TGI in the test on CCRF-CEM leukemia stood at 35.4 µM; with COLO 205 colon it was 29.2 µM; with CAKI-1 renal, 33.5 µM; with NCI-H23 lung, 30.6 µM; with RXF 393 renal, 27.9 µM; with SF-268 CNS, 23.7 µM.
`O=[P+](O)c1cc2c3ccccc3ccc2c2ccccc12`: the TGI in the test on CCRF-CEM leukemia, with KM12 colon, in the test on COLO 205 colon, in the test on NCI-H23 lung, in the test with RXF 393 renal and with SF-268 CNS was greater than 100 µM each time.
With `O=C1/C(=C/c2ccccc2)CN(C(=O)Oc2ccccc2)C/C1=C\c1ccccc1`, the TGI in the test with CCRF-CEM leukemia was 23.9 µM; in the test with KM12 colon, greater than 100 µM; with COLO 205 colon, greater than 100 µM; in the test with NCI-H23 lung, greater than 100 µM; with RXF 393 renal, 31.4 µM; in the test on SF-268 CNS it was greater than 100 µM.
`COc1ccc(CN[C@H]2CCc3cc(OC)c(OC)c(OC)c3-c3ccc(SC)c(=O)cc32)c(OC)c1OC`: the GI50 with CCRF-CEM leukemia is 0.0107 µM; with KM12 colon, less than 0.01 µM; in the test on COLO 205 colon, less than 0.01 µM; in the test with NCI-H23 lung, less than 0.01 µM; in the test on SF-268 CNS it was 0.0111 µM. The TGI was 5.46 µM with CCRF-CEM leukemia; 0.228 µM and 0.0408 µM in the test on KM12 colon; 0.0645 µM and 0.0155 µM with COLO 205 colon; greater than 100 µM in the test with CAKI-1 renal; 0.058 µM and 0.0396 µM in the test on NCI-H23 lung; 0.0497 µM with RXF 393 renal.
Turning to `CC(C)C(NCc1c2ccccc2nc2ccccc12)C(=O)O` (configuration not stated), the TGI in the test on CCRF-CEM leukemia was 88.3 µM; in the test with KM12 colon it was greater than 100 µM; in the test with COLO 205 colon it was greater than 100 µM; with CAKI-1 renal, greater than 100 µM; in the test on NCI-H23 lung, greater than 100 µM; with RXF 393 renal, greater than 100 µM. In the test with SF-268 CNS, this molecule yielded a TGI greater than 100 µM.
As for `COC(=O)C([O][Ge]([CH3])([CH3])[CH3])c1ccccc1` (configuration not stated), the GI50 in the test with CCRF-CEM leukemia, in the test with KM12 colon, in the test on COLO 205 colon, in the test with CAKI-1 renal, in the test with NCI-H23 lung and in the test on SF-268 CNS was greater than 100 µM in each case. In addition, the TGI in the test with CCRF-CEM leukemia, in the test on KM12 colon, in the test with COLO 205 colon, in the test on CAKI-1 renal, with NCI-H23 lung and in the test with SF-268 CNS was greater than 100 µM in each case.
As to `O=C1/C(=C/c2ccc(Cl)cc2)COc2ccc(Br)cc21`, the TGI in the test on CCRF-CEM leukemia, in the test with KM12 colon, in the test with COLO 205 colon, in the test on NCI-H23 lung, in the test with RXF 393 renal and in the test on SF-268 CNS was greater than 100 µM throughout.
With `CC(C(=O)C(C)O[Si](c1ccccc1)(c1ccccc1)C(C)(C)C)=P(c1ccccc1)(c1ccccc1)c1ccccc1` (configuration not stated), the TGI was found to be 15.8 µM with CCRF-CEM leukemia, 12.9 µM with KM12 colon, 3.45 µM in the test on COLO 205 colon and 15.5 µM in the test with NCI-H23 lung.
Regarding `CC(C)S(=O)(=O)ON1C(=O)c2ccc([N+](=O)[O-])cc2C1=O`, the TGI in the test with CCRF-CEM leukemia, in the test with KM12 colon, in the test with COLO 205 colon, with CAKI-1 renal, in the test on NCI-H23 lung and with RXF 393 renal was greater than 100 µM throughout. For the same molecule, the TGI with SF-268 CNS is greater than 100 µM.
Consider `COc1ccccc1NC(=O)NS(=O)(=O)c1ccccc1`, for which the TGI with KM12 colon is greater than 100 µM; in the test on COLO 205 colon it was greater than 100 µM; in the test on CAKI-1 renal, greater than 100 µM; in the test with NCI-H23 lung it was greater than 100 µM; with RXF 393 renal it was 98.2 µM; in the test on SF-268 CNS it was greater than 100 µM.
With `Cc1nc(=O)n2c(c1C(=O)Nc1ccc(Cl)cc1)NCCC2`, the TGI in the test on CCRF-CEM leukemia, in the test on KM12 colon, in the test with COLO 205 colon, in the test with CAKI-1 renal, in the test with NCI-H23 lung and in the test on RXF 393 renal was greater than 100 µM each time. In the test with SF-268 CNS, this molecule came in with a TGI greater than 100 µM.
Turning to `CC(C)N(C(=O)C12C3C4C5C3C1(C(=O)N(C(C)C)C(C)C)C5C42)C(C)C` (configuration not stated), the TGI with CCRF-CEM leukemia was greater than 68.3 µM; in the test with KM12 colon, greater than 100 µM; in the test with COLO 205 colon it was greater than 60.6 µM; with CAKI-1 renal, greater than 100 µM; in the test with NCI-H23 lung, greater than 100 µM; in the test on RXF 393 renal, greater than 100 µM. Further, in the test with SF-268 CNS, the TGI was greater than 100 µM.
Turning to `CCC[CH2][Sn]1([CH2]CCC)[O]N=Cc2ccccc2[O]1`, the GI50 with KM12 colon is 1.47 µM; in the test on COLO 205 colon, 0.713 µM; in the test with CAKI-1 renal, 0.322 µM; with NCI-H23 lung, 0.413 µM; in the test on RXF 393 renal, 0.224 µM. In addition, the TGI stood at 2.78 µM in the test with KM12 colon; 1.96 µM in the test with COLO 205 colon; 1.08 µM with CAKI-1 renal; 1.68 µM in the test with NCI-H23 lung; 1.05 µM with RXF 393 renal.
In the case of `CC(=O)OC1CC2C(C)(C)C(=O)C=C[C@]2(C)C2CCC3(C)C(=CCC3[C@H](CO)C[C@H](O)C(=O)C(C)(C)O)[C@]12C` (some centres not stated), the TGI was 66.3 µM with CCRF-CEM leukemia; 39 µM in the test on KM12 colon; greater than 100 µM in the test on COLO 205 colon; 55.3 µM with CAKI-1 renal; 31.3 µM in the test on RXF 393 renal; 82.2 µM in the test with SF-268 CNS.
`C/C(CC(=O)Nc1cc(Cl)c(Cl)cc1Cl)=N\NS(=O)(=O)c1ccc(C)cc1`: the TGI was greater than 100 µM in the test with CCRF-CEM leukemia; greater than 100 µM in the test on KM12 colon; 61.1 µM in the test on COLO 205 colon; 54.6 µM in the test on NCI-H23 lung; 82.7 µM in the test with RXF 393 renal; greater than 100 µM in the test with SF-268 CNS.
With `O=C1CCC(=O)C(C(=O)CCC(=O)Nc2ccc(Cl)cc2)C1` (configuration not stated), the TGI in the test on CCRF-CEM leukemia, with KM12 colon, in the test on COLO 205 colon, in the test with CAKI-1 renal, with NCI-H23 lung and with SF-268 CNS was greater than 100 µM in each case.
Turning to `NC(=O)COc1ccc(Br)cc1Br`, the TGI with KM12 colon, in the test with COLO 205 colon, with CAKI-1 renal, in the test on NCI-H23 lung and in the test with SF-268 CNS was greater than 100 µM in each case.
With `CCC1C(=O)OCc2c1cc1n(c2=O)Cc2ccccc2-1` (configuration not stated), the TGI in the test with CCRF-CEM leukemia, in the test on KM12 colon, with CAKI-1 renal, in the test on NCI-H23 lung, in the test with RXF 393 renal and in the test with SF-268 CNS was greater than 100 µM throughout.
Turning to `CC(C)=CCCC1(C)C=Cc2c(ccc3c2[nH]c2cc(O)c(C)cc23)O1` (configuration not stated), the GI50 with CCRF-CEM leukemia was 4.97 µM; in the test on KM12 colon, 4.74 µM; with RXF 393 renal it was 5.27 µM; in the test with SF-268 CNS it was 5.06 µM. Further, the TGI with CCRF-CEM leukemia is 15.2 µM; in the test with KM12 colon, 8.77 µM; with COLO 205 colon it was greater than 2.5 µM; in the test on RXF 393 renal, 10.1 µM; in the test with SF-268 CNS it was 10.2 µM.
For the molecule `CN(C)/C=C/C(=O)c1cccc(C(=O)/C=C/N(C)C)n1`, the TGI in the test with CCRF-CEM leukemia, with KM12 colon, with COLO 205 colon, in the test with NCI-H23 lung, in the test with RXF 393 renal and with SF-268 CNS was greater than 100 µM throughout.
